Source: patent US20240294479A1, “POLYMORPHS OF 2-(3,5-DICHLOROPHENYL)-L,3-BENZOXAZOLE-6-CARBOXYLIC ACID” (HONOUR LAB LIMITED, priority 2021, published 2024)
≈ marks a conversion by molar mass, not a printed value.

What was measured:
[1] = Solubility of Tafamidis crystalline forms in water at different pH; type: physicochemical
Procedure: However the crystalline Forms of the present invention has water solubility greater than or equal to 3 μg/mL at pH 5 and below.
The solubility of Tafamidis crystallin Form HN3 in water at different pH is as follows: […]

[2] = at pH 5 and below; EMEA scientific discussion; cited from earlier work

| Structure (SMILES) | solubility ([1]; pH 3, aqueous buffer) [µg/mL] | solubility ([1]; pH 4, aqueous buffer) [µg/mL] | solubility ([1]; pH 5, aqueous buffer) [µg/mL] | water solubility [2] [µg/mL] |
| --- | --- | --- | --- | --- |
| O=C(O)c1ccc2nc(-c3cc(Cl)cc(Cl)c3)oc2c1 [Form HN3, 2-(3,5-dichlorophenyl)-1,3-benzoxazole-6-carboxylic acid] | 3 (≈ 9.74 µM) | 3 (≈ 9.74 µM) | 3 (≈ 9.74 µM) | – |
| O=C(O)c1ccc2nc(-c3cc(Cl)cc(Cl)c3)oc2c1 [Tafamidis (Form 1), 2-(3,5-dichlorophenyl)-1,3-benzoxazole-6-carboxylic acid] | – | – | – | < 2 |
